Test results reported in patent US7485641B2, “Substituted 3-amino-pyrrolidino-4-lactams” (Pfizer, Inc., priority 2006, dated 2009).
Counter-ions that a name gives are not always drawn.

Each molecule was assayed against T1, DPP-IV (Homo sapiens, UniProt P27487) (assay: In vitro assay for dipeptidyl peptidase inhibition). Details: Examples 156-162; n-value in brackets; IC50's or percent inhibition at 300 nM; read-out: DPP-IV inhibition.
T1 construct: purchased Enzyme Systems Products SPE-01
T1 sequence (P27487 whole entry, species assumed): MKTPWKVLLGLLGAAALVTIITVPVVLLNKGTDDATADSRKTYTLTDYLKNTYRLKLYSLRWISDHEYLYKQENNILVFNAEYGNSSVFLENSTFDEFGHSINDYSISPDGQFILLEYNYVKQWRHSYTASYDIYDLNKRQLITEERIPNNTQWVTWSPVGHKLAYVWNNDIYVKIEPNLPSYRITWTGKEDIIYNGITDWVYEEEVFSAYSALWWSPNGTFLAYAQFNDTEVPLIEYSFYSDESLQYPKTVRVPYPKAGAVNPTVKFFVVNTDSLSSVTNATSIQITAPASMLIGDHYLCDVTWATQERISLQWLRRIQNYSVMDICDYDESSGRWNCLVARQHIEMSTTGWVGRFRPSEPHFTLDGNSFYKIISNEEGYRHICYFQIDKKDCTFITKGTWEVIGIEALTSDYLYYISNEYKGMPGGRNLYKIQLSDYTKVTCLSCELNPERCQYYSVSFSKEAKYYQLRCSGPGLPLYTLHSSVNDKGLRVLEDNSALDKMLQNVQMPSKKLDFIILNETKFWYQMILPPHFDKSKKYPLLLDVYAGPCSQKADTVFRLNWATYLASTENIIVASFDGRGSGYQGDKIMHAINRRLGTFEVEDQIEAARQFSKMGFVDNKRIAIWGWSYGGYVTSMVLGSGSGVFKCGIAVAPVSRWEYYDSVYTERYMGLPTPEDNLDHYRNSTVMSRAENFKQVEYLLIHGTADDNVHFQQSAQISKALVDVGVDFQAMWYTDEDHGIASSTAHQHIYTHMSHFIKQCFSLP
Assay type: biochemical
`N[C@H]1CN(C(=O)c2cc3ccccc3s2)C[C@@H]1N1CCCCC1=O` [Example 160, 1-[(3S,4S)-4-Amino-1-(benzo[b]thiophene-2-carbonyl)-pyrrolidin-3-yl]-piperidin-2-onehydrochloride] gave an IC50 of 317 nM. For `N[C@H]1CN(C(=O)c2cc3ccc(Cl)cc3o2)C[C@@H]1N1CCCCC1=O` [Example 158, 1-((3S,4S)-4-amino-1-(6-chlorobenzofuran-2-carbonyl)pyrrolidin-3-yl)piperidin-2-onetrifluoroacetate], the IC50 was 231 nM. `N[C@H]1CN(C(=O)c2cc3ccccc3o2)C[C@@H]1N1CCCCC1=O` [Example 156, 1-[(3S,4S)-4-Amino-1-(benzofuran-2-carbonyl)-pyrrolidin-3-yl]-piperidin-2-one hydrochloride] gave an IC50 of 187 nM.

Same assay, conditions: at 300 nM; n-value given in brackets
With `COC1(C)CCN(c2ncnc(N3C[C@H](N)[C@@H](N4CCCCC4=O)C3)n2)CC1.O=C(O)C(F)(F)F` [Example 36, 1-((3S,4S)-4-Amino-1-(4-(4-methoxy-4-methylpiperidin-1-yl)-1,3,5-triazin-2-yl)pyrrolidin-3-yl)piperidin-2-onetrifluoroacetate] the “DPP-IV Percent Inhibition at 300 nM” value was 22.2%(4). In the case of `COc1cc2c(cc1OC)CN(c1ncnc(N3C[C@H](N)[C@@H](N4CCCCC4=O)C3)n1)CC2.O=C(O)C(F)(F)F` [Example 59, 1-((3S,4S)-4-Amino-1-(4-(6,7-dimethoxy-3,4-dihydroisoquinolin-2(1H)-yl)-1,3,5-triazin-2-yl)pyrrolidin-3-yl)piperidin-2-onetrifluoroacetate], the “DPP-IV Percent Inhibition at 300 nM” value is reported as 44.3%(4).

Same assay, conditions: at 300 nM; n-value given in brackets; read-out: DPP-IV Percent Inhibition at 300 nM
Molecule `COc1ccc2ncnc(N3C[C@H](N)[C@@H](N4CCCCC4=O)C3)c2c1` [Example 107, 1-((3S,4S)-4-amino-1-(6-methoxyquinazolin-4-yl)pyrrolidin-3-yl)piperidin-2-one] has an inhibition at 0.3 µM of 47%. Work on `N[C@H]1CN(c2cc(N3CCc4noc(C(F)(F)F)c4C3)ncn2)C[C@@H]1N1CCCCC1=O` [Example 81, 1-((3S,4S)-4-amino-1-(6-(3-(trifluoromethyl)-6,7-dihydroisoxazolo[4,3-c]pyridin-5(4H)-yl)pyrimidin-4-yl)pyrrolidin-3-yl)piperidin-2-one trifluoroacetate] yielded an inhibition at 0.3 µM of 44.5%. `CCS(=O)(=O)c1ccc2c(N3C[C@H](N)[C@@H](N4CCCCC4=O)C3)ncnc2c1` [Example 139, 1-((3S,4S)-4-amino-1-(7-(ethylsulfonyl)quinazolin-4-yl)pyrrolidin-3-yl)piperidin-2-one] showed an inhibition at 0.3 µM of 33.5%.

Same assay, conditions: n-value given in brackets; read-out: DPP-IV IC50
`Cc1nc(N2C[C@H](N)[C@@H](N3CC(F)(F)CCC3=O)C2)cc(N2CCC(F)(F)C2)n1` [Example 3, 1-((3S,4S)-4-amino-1-(6-(3,3-difluoropyrrolidin-1-yl)-2-methylpyrimidin-4-yl)pyrrolidin-3-yl)-5,5-difluoropiperidin-2-one] was tested, and the IC50 was 12.6 nM. Molecule `N[C@H]1CN(c2ncnc(-c3ccccc3)n2)C[C@@H]1N1CC(F)(F)CCC1=O` [Example 84, 1-((3S,4S)-4-amino-1-(4-phenyl-1,3,5-triazin-2-yl)pyrrolidin-3-yl)-5,5-difluoropiperidin-2-one trifluoroacetate] has an IC50 of 38.7 nM. `N[C@H]1CN(c2ncnc3c(F)cccc23)C[C@@H]1N1CCCCC1=O` [Example 109, 1-((3S,4S)-Amino-1-(8-fluoroquinazolin-4-yl)pyrrolidin-3-yl)piperidin-2-one trifluoroacetate] showed an IC50 of 110 nM. `CCCOc1cc(N2C[C@H](N)[C@@H](N3CCCCC3=O)C2)ncn1` [Example 89, 1-((3S,4S)-4-Amino-1-(6-propoxypyrimidin-4-yl)pyrrolidin-3-yl)piperidin-2-one trifluoroacetate] was tested, and the IC50 was 318 nM. Molecule `N[C@H]1CN(c2ncnc3cc(Oc4ccc(F)cc4)ccc23)C[C@@H]1N1CCCCC1=O` [Example 128, 1-((3S,4S)-4-amino-1-(7-(4-fluorophenoxy)quinazolin-4-yl)pyrrolidin-3-yl)piperidin-2-one] has an IC50 of 222 nM. `CC(C)S(=O)(=O)Oc1ccc2c(N3C[C@H](N)[C@@H](N4CCCCC4=O)C3)ncnc2c1` [Example 136, 4-((3S,4S)-3-amino-4-(2-oxopiperidin-1-yl)pyrrolidin-1-yl)quinazolin-7-yl propane-2-sulfonate] showed an IC50 of 135 nM. For `N[C@H]1CN(c2ncnc(-c3ccccc3)n2)C[C@@H]1N1CCCCC1=O` [Example 85, 1-[(3S,4S)-4-Amino-1-(4-phenyl-[1,3,5]triazin-2-yl)-pyrrolidin-3-yl]-piperidin-2-one hydrochloride], the IC50 was 59.1 nM. In the case of `CC(C)Sc1ccc2c(N3C[C@H](N)[C@@H](N4CCCCC4=O)C3)ncnc2c1` [Example 137, 1-((3S,4S)-4-amino-1-(7-(isopropylthio)quinazolin-4-yl)pyrrolidin-3-yl)piperidin-2-one], the IC50 is reported as 116 nM. For `N[C@H]1CN(c2ncnc(N3C[C@@H](F)[C@@H](F)C3)n2)C[C@@H]1N1CCCCC1=O` [Example 28, 1-((3S,4S)-4-Amino-1-(4-((3R,4S)-3,4-difluoropyrrolidin-1-yl)-1,3,5-triazin-2-yl)pyrrolidin-3-yl)piperidin-2-onetrifluoroacetate], the IC50 was 67.8 nM. Molecule `N[C@H]1CN(c2cc(N3CCc4ncsc4C3)ncn2)C[C@@H]1N1CCCC1=O` [Example 62, 1-((3S,4S)-4-Amino-1-(6-(6,7-dihydrothiazolo[5,4-c]pyridin-5(4H)-yl)pyrimidin-4-yl)pyrrolidin-3-yl)pyrrolidin-2-onedihydrochloride] has an IC50 of 640 nM. `N[C@H]1CN(c2ncnc(N3CC[C@@H](NC(=O)C(F)(F)F)C3)n2)C[C@@H]1N1CCCCC1=O` [Example 42, N-((R)-1-(4-((3S,4S)-3-Amino-4-(2-oxopiperidin-1-yl)pyrrolidin-1-yl)-1,3,5-triazin-2-yl)pyrrolidin-3-yl)-2,2,2-trifluoroacetamidetrifluoroacetate] showed an IC50 of 80 nM. `N[C@H]1CN(c2ncnc3cc(C(F)(F)F)ccc23)C[C@@H]1N1CCCCC1=O` [Example 110, 1-((3S,4S)-4-amino-1-(7-(trifluoromethyl)quinazolin-4-yl)pyrrolidin-3-yl)piperidin-2-one] was tested, and the IC50 was 47.2 nM. `CC(C)c1ccc2c(N3C[C@H](N)[C@@H](N4CCCCC4=O)C3)ncnc2c1` [Example 116, 1-((3S,4S)-4-amino-1-(7-isopropylquinazolin-4-yl)pyrrolidin-3-yl)piperidin-2-one] gave an IC50 of 55.9 nM. `N[C@H]1CN(c2ncnc(N3CC[C@@H](O)C3)n2)C[C@@H]1N1CCCCC1=O` [Example 38, 1-((3S,4S)-4-Amino-1-(4-((R)-3-hydroxypyrrolidin-1-yl)-1,3,5-triazin-2-yl)pyrrolidin-3-yl)piperidin-2-onetrifluoroacetate] was tested, and the IC50 was 205 nM. `N[C@H]1CN(c2cc(N3CCC(F)(F)C3)nc(C(F)(F)F)n2)C[C@@H]1N1CC(F)(F)CCC1=O` [Example 13, 1-((3S,4S)-4-amino-1-(6-(3,3-difluoropyrrolidin-1-yl)-2-(trifluoromethyl)pyrimidin-4-yl)pyrrolidin-3-yl)-5,5-difluoropiperidin-2-one] showed an IC50 of 56.7 nM. `N[C@H]1CN(c2cc(N3CCC(F)(F)C3)ncn2)C[C@@H]1N1CCCCC1=O` [Example 10, 1-((3S,4S)-4-Amino-1-(6-(3,3-difluoropyrrolidin-1-yl)pyrimidin-4-yl)pyrrolidin-3-yl)piperidin-2-onedihydrochloride] was tested, and the IC50 was 25.5 nM. Work on `N[C@H]1CN(c2ncnc(N3C[C@H](F)[C@@H](F)C3)n2)C[C@@H]1N1CCCCC1=O` [Example 30, 1-((3S,4S)-4-Amino-1-(4-((3S,4S)-3,4-difluoropyrrolidin-1-yl)-1,3,5-triazin-2-yl)pyrrolidin-3-yl)piperidin-2-onetrifluoroacetate] yielded an IC50 of 104 nM. With `CS(=O)(=O)c1ccccc1S(=O)(=O)Oc1ccc2c(N3C[C@H](N)[C@@H](N4CC(F)(F)CCC4=O)C3)ncnc2c1` [Example 97, 4-((3S,4S)-3-amino-4-(5,5-difluoro-2-oxopiperidin-1-yl)pyrrolidin-1-yl)quinazolin-7-yl 2-(methylsulfonyl)benzenesulfonate] the IC50 was less than 1 nM. With `N[C@H]1CN(c2ncnc3cc(Sc4cccc(F)c4)ccc23)C[C@@H]1N1CCCCC1=O` [Example 130, 1-((3S,4S)-4-amino-1-(7-(3-fluorophenylthio)quinazolin-4-yl)pyrrolidin-3-yl)piperidin-2-oneformate] the IC50 was 60.5 nM. Work on `N[C@H]1CN(c2cc(NC3CC3)ncn2)C[C@@H]1N1CCCCC1=O` [Example 73, 1-[(3S,4S)-4-Amino-1-(6-cyclopropylamino-pyrimidin-4-yl)-pyrrolidin-3-yl]-piperidin-2-onedihydrochloride] yielded an IC50 of 74.2 nM. Work on `N[C@H]1CN(c2cc(-c3ccc(O)nc3)ncn2)C[C@@H]1N1CCCCC1=O` [Example 8, 1-{(3S,4S)-4-Amino-1-[6-(6-hydroxy-pyridin-3-yl)pyrimidin-4-yl]-pyrrolidin-3-yl}-piperidin-2-one] yielded an IC50 of 27.1 nM. `COc1cc2ncnc(N3C[C@H](N)[C@@H](N4CCCCC4=O)C3)c2cc1Cl` [Example 106, 1-((3S,4S)-4-Amino-1-(6-chloro-7-methoxyquinazolin-4-yl)pyrrolidin-3-yl)piperidin-2-one trifluoroacetate] was tested, and the IC50 was 99.6 nM. `COc1ccc(-c2cc(N3C[C@H](N)[C@@H](N4CCCCC4=O)C3)ncn2)cn1` [Example 87, 1-{(3S,4S)-4-Amino-1-[6-(6-methoxy-pyridin-3-yl)-pyrimidin-4-yl]pyrrolidin-3-yl}-piperidin-2-one dihydrochloride] showed an IC50 of 38.6 nM. `N[C@H]1CN(c2ncnc3cc(OC4CCC4)ccc23)C[C@@H]1N1CCCCC1=O` [Example 125, 1-((3S,4S)-4-amino-1-(7-cyclobutoxyquinazolin-4-yl)pyrrolidin-3-yl)piperidin-2-one] gave an IC50 of 101 nM. Work on `CS(=O)(=O)Oc1ccc2c(N3C[C@H](N)[C@@H](N4CCCCC4=O)C3)ncnc2c1` [Example 135, 4-((3S,4S)-3-amino-4-(2-oxopiperidin-1-yl)pyrrolidin-1-yl)quinazolin-7-yl methanesulfonate] yielded an IC50 of 128 nM.
